For test [1], the target named is T1, Estrogen receptor (Homo sapiens, UniProt P03372).
T1 sequence (P03372 whole entry): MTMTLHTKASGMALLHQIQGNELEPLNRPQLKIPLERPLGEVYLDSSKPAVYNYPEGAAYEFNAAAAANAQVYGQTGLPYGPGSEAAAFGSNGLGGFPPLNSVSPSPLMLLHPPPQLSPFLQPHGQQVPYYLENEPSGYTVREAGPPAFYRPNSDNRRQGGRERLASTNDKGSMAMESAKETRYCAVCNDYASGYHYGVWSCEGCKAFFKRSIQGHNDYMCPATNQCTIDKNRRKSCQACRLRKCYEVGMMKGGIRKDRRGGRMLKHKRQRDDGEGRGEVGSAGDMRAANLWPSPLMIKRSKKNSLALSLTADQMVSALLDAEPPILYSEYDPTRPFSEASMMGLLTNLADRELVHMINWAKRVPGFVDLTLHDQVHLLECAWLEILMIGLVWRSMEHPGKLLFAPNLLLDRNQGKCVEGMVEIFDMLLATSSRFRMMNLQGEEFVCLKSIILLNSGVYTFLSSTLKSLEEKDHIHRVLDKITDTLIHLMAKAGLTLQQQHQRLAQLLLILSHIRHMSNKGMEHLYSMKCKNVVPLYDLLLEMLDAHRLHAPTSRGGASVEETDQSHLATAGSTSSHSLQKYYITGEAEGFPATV

Test [2] addresses T2, Progesterone receptor (Homo sapiens, UniProt P06401).
T2 sequence (P06401 whole entry): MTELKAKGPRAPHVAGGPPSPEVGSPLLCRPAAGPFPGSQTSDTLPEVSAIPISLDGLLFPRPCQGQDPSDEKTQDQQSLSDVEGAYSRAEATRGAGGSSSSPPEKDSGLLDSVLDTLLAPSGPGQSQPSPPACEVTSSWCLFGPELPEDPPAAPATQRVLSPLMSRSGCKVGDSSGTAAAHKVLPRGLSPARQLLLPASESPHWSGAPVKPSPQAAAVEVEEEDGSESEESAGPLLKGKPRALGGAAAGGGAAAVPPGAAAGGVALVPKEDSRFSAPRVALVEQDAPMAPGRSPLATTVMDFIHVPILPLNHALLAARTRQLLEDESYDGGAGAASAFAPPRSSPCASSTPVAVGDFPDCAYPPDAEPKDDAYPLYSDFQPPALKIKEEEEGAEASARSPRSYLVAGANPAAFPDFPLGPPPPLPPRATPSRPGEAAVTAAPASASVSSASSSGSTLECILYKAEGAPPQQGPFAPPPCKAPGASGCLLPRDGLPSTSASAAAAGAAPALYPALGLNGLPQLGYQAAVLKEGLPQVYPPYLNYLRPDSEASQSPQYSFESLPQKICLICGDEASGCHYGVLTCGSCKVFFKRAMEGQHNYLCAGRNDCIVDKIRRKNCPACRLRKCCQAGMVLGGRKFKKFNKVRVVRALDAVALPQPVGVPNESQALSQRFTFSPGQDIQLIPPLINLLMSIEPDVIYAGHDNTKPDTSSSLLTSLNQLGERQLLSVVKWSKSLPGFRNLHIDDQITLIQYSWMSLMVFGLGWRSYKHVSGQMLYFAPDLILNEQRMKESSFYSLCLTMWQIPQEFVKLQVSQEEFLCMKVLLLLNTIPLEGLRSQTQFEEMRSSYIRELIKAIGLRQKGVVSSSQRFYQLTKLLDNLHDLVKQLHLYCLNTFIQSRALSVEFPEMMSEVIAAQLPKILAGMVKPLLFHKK
The test is classed as functional.

In test [3] the target is T3, Equilibrative nucleoside transporter 1 (Homo sapiens, UniProt Q99808).
T3 sequence (Q99808 whole entry): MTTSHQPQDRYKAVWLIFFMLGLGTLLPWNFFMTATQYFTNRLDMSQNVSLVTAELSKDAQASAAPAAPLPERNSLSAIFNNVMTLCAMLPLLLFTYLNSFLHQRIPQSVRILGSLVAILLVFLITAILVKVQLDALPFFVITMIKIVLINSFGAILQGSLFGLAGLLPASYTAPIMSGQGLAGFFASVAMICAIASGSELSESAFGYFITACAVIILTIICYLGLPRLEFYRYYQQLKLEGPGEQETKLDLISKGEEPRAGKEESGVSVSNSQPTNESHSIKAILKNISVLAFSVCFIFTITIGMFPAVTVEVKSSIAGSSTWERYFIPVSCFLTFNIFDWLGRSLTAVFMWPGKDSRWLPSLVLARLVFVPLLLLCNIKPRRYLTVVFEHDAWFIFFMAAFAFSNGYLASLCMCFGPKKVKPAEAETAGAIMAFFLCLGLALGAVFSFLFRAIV

The target of test [4] is T4, Alpha-1A adrenergic receptor (Homo sapiens, UniProt P35348).
T4 sequence (P35348 whole entry): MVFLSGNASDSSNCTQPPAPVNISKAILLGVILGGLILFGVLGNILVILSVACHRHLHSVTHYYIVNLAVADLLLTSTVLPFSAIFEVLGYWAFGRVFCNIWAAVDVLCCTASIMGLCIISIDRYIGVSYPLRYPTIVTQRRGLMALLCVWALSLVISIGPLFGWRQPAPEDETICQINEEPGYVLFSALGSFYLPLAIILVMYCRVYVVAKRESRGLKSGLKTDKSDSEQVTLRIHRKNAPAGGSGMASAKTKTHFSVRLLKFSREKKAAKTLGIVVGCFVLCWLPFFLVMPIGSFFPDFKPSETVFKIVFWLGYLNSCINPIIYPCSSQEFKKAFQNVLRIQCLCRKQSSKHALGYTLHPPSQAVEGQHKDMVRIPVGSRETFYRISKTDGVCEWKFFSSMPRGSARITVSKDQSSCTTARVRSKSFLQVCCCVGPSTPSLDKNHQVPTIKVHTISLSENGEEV
The test is classed as functional, cell-based.

Test [5] deals with T4, Alpha-1A adrenergic receptor. The test is classed as functional, cell-based. The source holds these as a separate data set.

Here are results for 28 compounds from ChEMBL document CHEMBL5291721, “A preclinical secondary pharmacology resource illuminates target-adverse drug reaction associations of marketed drugs” (Nat Commun, 2023).
Also: assay procedure not described here.

Broadly, the AC50 is the midpoint of the concentration-response curve, whichever way the signal moves. A lower AC50 goes with greater potency. In the case of `O=C(CCCCC(=O)Nc1c(I)cc(I)c(C(=O)O)c1I)Nc1c(I)cc(I)c(C(=O)O)c1I` [IODIPAMIDE], the concentration at half-maximal activity (AC50) in test [1], in test [2] and in test [3] was more than 10 µM throughout.

For TOCOFERSOLAN, the half-maximal activity concentration (AC50) in test [4], in test [1], in test [2], in test [3] and in test [5] was more than 30 µM throughout.

`CN1C(=O)CC(=O)N(c2ccccc2)c2cc(Cl)ccc21` [CLOBAZAM]: the half-maximal activity concentration (AC50) in test [1], in test [2] and in test [3] was more than 10 µM in each case.

Take `O=C(C[S+]([O-])C(c1ccccc1)c1ccccc1)NO` (centres undefined): the AC50 in test [4], in test [1], in test [2], in test [3] and in test [5] was more than 30 µM in each case.

For `COc1ccccc1OCC(O)COC(N)=O` (centres undefined) [METHOCARBAMOL], the AC50 in test [1] is more than 30 µM; in test [2] it was more than 30 µM; in test [3], more than 10 µM.

Take `CC(=O)O[C@@]12CO[C@@H]1C[C@H](O)[C@@]1(C)C(=O)[C@H](O)C3=C(C)[C@@H](OC(=O)[C@H](O)[C@@H](NC(=O)OC(C)(C)C)c4ccccc4)C[C@@](O)([C@@H](OC(=O)c4ccccc4)[C@H]21)C3(C)C` [DOCETAXEL ANHYDROUS]: the AC50 in test [1], in test [2] and in test [3] was more than 30 µM each time.

Turning to `CCCCCCCCOc1ccccc1C(=O)Nc1ccc(C(=O)OCC[N+](C)(CC)CC)cc1` [OTILONIUM BROMIDE], the concentration at half-maximal activity (AC50) is 12 µM in test [4], more than 30 µM in test [1], 7 µM in test [2] and 17 µM in test [3].

As to `CCCOc1ccc(C(=O)OCCN(CC)CC)cc1N` [PROPARACAINE], the AC50 in test [4], in test [2], in test [3] and in test [5] was more than 30 µM each time.

In the case of `O=C1NCCN1CCN1CCC(c2cn(-c3ccc(F)cc3)c3ccc(Cl)cc23)CC1` [SERTINDOLE], the AC50 in test [4] is more than 30 µM; in test [2] it was more than 30 µM; in test [3], more than 30 µM; in test [5], 0.64 µM.

For `CN[C@@H]1[C@H](O)[C@H](NC)[C@H]2O[C@@]3(O)C(=O)C[C@@H](C)O[C@H]3O[C@@H]2[C@H]1O` [SPECTINOMYCIN], the AC50 in test [1], in test [2] and in test [3] was more than 10 µM in each case.

Regarding `[H]/N=C(/N)c1ccc(NCc2nc3cc(C(=O)N(CCC(=O)O)c4ccccn4)ccc3n2C)cc1` [DABIGATRAN], the concentration at half-maximal activity (AC50) in test [4], in test [2], in test [3] and in test [5] was more than 30 µM throughout.

In the case of `CCCCCCCCCCCC[N+](C)(C)CCOc1ccccc1` [DOMIPHEN], the concentration at half-maximal activity (AC50) in test [4] was more than 30 µM; in test [1], 5 µM; in test [2], 4.5 µM; in test [3], more than 30 µM.

`CC(=O)NS(=O)(=O)c1ccc(N)cc1` [SULFACETAMIDE]: the half-maximal activity concentration (AC50) in test [1], in test [2] and in test [3] was more than 10 µM each time.

As to `CN1CC[C@]23CCCC[C@H]2[C@H]1Cc1ccc(O)cc13` [LEVORPHANOL], the concentration at half-maximal activity (AC50) in test [1] was more than 10 µM; in test [2], more than 10 µM; in test [3] it was more than 30 µM.

`CN1CCCN=C1COC(=O)C(O)(c1ccccc1)C1CCCCC1` (centres undefined) [OXYPHENCYCLIMINE]: the concentration at half-maximal activity (AC50) is more than 10 µM in test [1], more than 10 µM in test [2] and 27.5 µM in test [3].

Consider `CC(C)[N+](C)(CCC(C(N)=O)(c1ccccc1)c1ccccc1)C(C)C` [ISOPROPAMIDE], for which the AC50 in test [1], in test [2] and in test [3] was more than 10 µM throughout.

As for `CN1CCN(C(=O)OC2c3nccnc3C(=O)N2c2ccc(Cl)cn2)CC1` (centres undefined) [ZOPICLONE], the AC50 in test [4], in test [2], in test [3] and in test [5] was more than 30 µM in each case.

Take `COc1ccc2c(c1)c(CC(=O)OCC(=O)O)c(C)n2C(=O)c1ccc(Cl)cc1` [ACEMETACIN]: the AC50 in test [4], in test [2], in test [3] and in test [5] was more than 30 µM each time.

As to `Cc1c(Cl)cccc1Nc1ccccc1C(=O)O` [TOLFENAMIC ACID], the AC50 is more than 30 µM in test [4], 26 µM in test [2] and 9.5 µM in test [5].

For `CN1CCC2=C(C1)C(c1ccccc1)c1ccccc12` (centres undefined) [PHENINDAMINE], the AC50 in test [1], in test [2] and in test [3] was more than 30 µM each time.

Consider `C#CC1(OC(N)=O)CCCCC1` [ETHINAMATE], for which the AC50 in test [1], in test [2] and in test [3] was more than 10 µM each time.

As for `Cc1nc2ccc(CN(C)c3ccc(C(=O)N[C@@H](CCC(=O)O)C(=O)O)s3)cc2c(=O)[nH]1` [RALTITREXED], the concentration at half-maximal activity (AC50) in test [4], in test [2], in test [3] and in test [5] was more than 30 µM throughout.

Regarding `CC1=CC(=O)c2ccccc2C1=O` [MENADIONE], the AC50 in test [1] is more than 30 µM; in test [2] it was more than 30 µM; in test [3], more than 10 µM.

In the case of `C#CCN[C@@H]1CCc2ccccc21` [RASAGILINE], the AC50 in test [1], in test [2] and in test [3] was more than 30 µM throughout.

Regarding `COC(=O)C1=C(C)NC(C)=C(C(=O)OC(C)C)C1c1cccc2nonc12` (centres undefined) [ISRADIPINE], the AC50 in test [4], in test [2], in test [3] and in test [5] was more than 30 µM each time.

For `CCCC(CCC)C(=O)O[C@H]1C[C@H]2CC[C@@H](C1)[N+]2(C)C` [ANISOTROPINE], the values for the half-maximal activity concentration (AC50) in test [4], in test [2] and in test [5] were more than 30 µM, more than 30 µM and 19 µM, respectively.

With `CCCCOc1cc(C(=O)NCCN(CC)CC)c2ccccc2n1` [DIBUCAINE], the AC50 in test [4] is more than 30 µM; in test [2] it was more than 10 µM; in test [3] it was more than 10 µM; in test [5] it was more than 30 µM.

Consider `CCOC(=O)[C@H](CCc1ccccc1)N[C@H]1CCCN2CCC[C@@H](C(=O)O)N2C1=O` [CILAZAPRIL], for which the half-maximal activity concentration (AC50) in test [4], in test [2], in test [3] and in test [5] was more than 30 µM throughout.
